# Assay results as given in paper PMC4513639 (Molecular pharmacology, 2014).
# Changes are numbered by the printed parent chain. Where two headings read alike, the source gives them in different places.
# Legend:
# [1] = tested on: A1-receptor-Y^288A; format: cell-based, human; details: for receptor upregulation with only one of the inhibitors (immunoblot): sole inhibitor, 2 μM EHNA or 10 μM dipyridamole; for role of blockage of adenosine efflux in receptor upregulation: added to EHNA and 5-iodotubercidin
# [2] = biological target: adenosine deaminase; details: ref Ingolia et al., 1985; cited from earlier work
# [3] = biological target: T1, A1 receptor (Homo sapiens, UniProt P30542); test: Binding of the inhibitors to the A1 receptor; details: nanomolar to micromolar range
# T1 sequence (P30542 1-326): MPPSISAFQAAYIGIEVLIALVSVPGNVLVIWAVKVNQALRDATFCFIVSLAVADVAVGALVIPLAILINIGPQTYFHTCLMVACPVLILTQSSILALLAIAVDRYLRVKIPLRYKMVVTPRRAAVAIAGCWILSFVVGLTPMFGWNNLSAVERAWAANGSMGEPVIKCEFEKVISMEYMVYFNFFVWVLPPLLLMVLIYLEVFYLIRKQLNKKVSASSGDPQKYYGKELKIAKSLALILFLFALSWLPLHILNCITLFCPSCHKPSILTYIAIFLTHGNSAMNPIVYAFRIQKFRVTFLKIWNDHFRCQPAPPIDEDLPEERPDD
# [4] = tested on: A1-receptor-Y^288A; format: cell-based, human; details: 24 hours; 1 μM DPCPX or inhibitor combination
# [5] = tested on: A1-receptor-Y^288A; test: Confocal microscopy of YFP-tagged A1-receptor-Y288A distribution; format: cell-based, human; details: 1 μM DPCPX or combination of inhibitors
# [6] = biological target: T2, A1-receptor-Y^288A (Homo sapiens, UniProt P30542, Y288A); format: binding; details: membranes of untreated cells
# T2 sequence (P30542 1-326 Y288A): T1 sequence (P30542 1-326) with Y288A
# [7] = tested on: A1-receptor-Y^288A; format: cell-based, human; details: SF-TAP-tagged receptor, 24 hours treatment, 15 nM [3H]DPCPX
# [8] = biological target: T3, wild-type A1 receptor (Homo sapiens, UniProt P30542); format: binding; details: SF-TAP-tagged receptor
# T3 sequence (P30542 1-326): T1 sequence (P30542 1-326)
# [9] = biological target: human ENT1; details: read-out: affinity; ref Ward et al., 2000; cited from earlier work
# [10] = biological target: human ENT2; details: read-out: affinity; ref Ward et al., 2000; cited from earlier work
# [11] = 24 hours, 0.5 μM iodotubercidin
structure (smiles),measurement,setting,value
"CCCCCC[C@@H]([C@@H](C)O)n1cnc2c(N)ncnc21 (racemic) [EHNA, Erythro-9-(2-hydroxy-3-nonyl)adenine]",receptor upregulation with only one of the inhibitors (immunoblot),[1]; [11],not present
same,Ki,[2],33 nM
same,binding to the A1 receptor,[3],"neither EHNA nor 5-iodotubercidin nor dipyridamole per se, nor their combination, used in the experiments bound to the A1 receptor"
Nc1ncnc2c1c(I)cn2[C@@H]1O[C@H](CO)[C@@H](O)[C@H]1O [5-iodotubercidin],receptor upregulation with only one of the inhibitors (immunoblot),[1]; [11],not present
same,binding to the A1 receptor,[3],"neither EHNA nor 5-iodotubercidin nor dipyridamole per se, nor their combination, used in the experiments bound to the A1 receptor"
"CCCn1c(=O)c2[nH]c(C3CCCC3)nc2n(CCC)c1=O [DPCPX, 8-cyclopentyl-1,3-dipropylxanthine]",YFP fluorescence (flow cytometry),[4],substantial accumulation of YFP fluorescence
same,distribution of receptor fluorescence (confocal),[5],the fluorescence was visualized on the cell surface
same,fate of receptor after cycloheximide block (mature glycosylated forms),"[1]; 4 hours preincubation, then cycloheximide 50 μg/ml for 2 or 4 hours",concomitant increase in the mature glycosylated forms of the receptor
same,level of receptor protein (immunoblot),"[1]; HEK293 stably expressing A1-receptor-Y288A-YFP, 24 hours, 1 μM DPCPX, 2 μM EHNA, 0.5 μM iodotubercidin, 10 μM dipyridamole",elevated levels of the receptor protein
same,time of maximum chaperoning effect,"[1]; incubation 1, 2, 4, 8 or 24 hours",24 h
same,Bmax,[6],486.3 ± 80.0 fmol/mg
same,binding of [3H]DPCPX by the receptors accumulated after treatment,[7],did bind the radioligand
same,Bmax,"[8]; hypoxic cells (5% O2, 24 hours)",15.0 ± 0.8 pmol/mg
same,Bmax,[8]; normoxic cells,12.2 ± 0.3 pmol/mg
"O=[N+]([O-])c1ccc(CSc2ncnc3c2ncn3[C@@H]2O[C@H](CO)[C@@H](O)[C@H]2O)cc1 [NBMPR, S-(4-nitrobenzyl)-6-thioinosine]",role of blockage of adenosine efflux in receptor upregulation,[1]; 24 hours,indispensable for receptor upregulation
OCCN(CCO)c1nc(N2CCCCC2)c2nc(N(CCO)CCO)nc(N3CCCCC3)c2n1 [dipyridamole],role of blockage of adenosine efflux in receptor upregulation,[1]; 24 hours,indispensable for receptor upregulation
same,receptor upregulation with only one of the inhibitors (immunoblot),[1]; [11],not present
same,Ki,[9],~5 nM
same,Ki,[10],~350 nM
same,binding to the A1 receptor,[3],"neither EHNA nor 5-iodotubercidin nor dipyridamole per se, nor their combination, used in the experiments bound to the A1 receptor"
O=C1N[C@@H]2[C@@H](O)[C@@H](O)[C@H](O)[C@@H](CO)N2C1=O [kifunensine],binding of [3H]DPCPX by the receptors accumulated after treatment,[7],failed to bind the antagonist radioligand [^3H]DPCPX
